Laboratory results: PubChem BioAssay (NCI)
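Compound exposure: 48 hours, 5 concentrations, 96-well plates. At the GI50, growth is halved. TGI is the concentration that stops growth completely.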

What was measured:
Assay in all cases: DTP human tumour cell line panel, 48 h
SK-MEL-2 melanoma = system: SK-MEL-2 melanoma
RXF 393 renal = system: RXF 393 renal
NCI-H226 lung = system: NCI-H226 lung
UACC-62 melanoma = system: UACC-62 melanoma
SN12C renal = system: SN12C renal
OVCAR-5 ovarian = system: OVCAR-5 ovarian
COLO 205 colon = system: COLO 205 colon
LOX IMVI melanoma = system: LOX IMVI melanoma
HCC-2998 colon = system: HCC-2998 colon
OVCAR-8 ovarian = system: OVCAR-8 ovarian

Row | Structure (SMILES) | GI50 (SK-MEL-2 melanoma) [µM] | TGI (SK-MEL-2 melanoma) [µM] | GI50 (RXF 393 renal) [µM] | TGI (RXF 393 renal) [µM] | GI50 (NCI-H226 lung) [µM] | TGI (NCI-H226 lung) [µM] | GI50 (UACC-62 melanoma) [µM] | TGI (UACC-62 melanoma) [µM] | GI50 (SN12C renal) [µM] | TGI (SN12C renal) [µM] | GI50 (OVCAR-5 ovarian) [µM] | TGI (OVCAR-5 ovarian) [µM] | GI50 (COLO 205 colon) [µM] | TGI (COLO 205 colon) [µM] | GI50 (LOX IMVI melanoma) [µM] | TGI (LOX IMVI melanoma) [µM] | GI50 (HCC-2998 colon) [µM] | TGI (HCC-2998 colon) [µM] | GI50 (OVCAR-8 ovarian) [µM] | TGI (OVCAR-8 ovarian) [µM]
1 | Cc1nc([C@H]2CC[C@H]3[C@@H]4CCC5=CC(=O)CC[C@]5(C)[C@H]4CC[C@]23C)cs1 | > 100 | > 100 | 10.6 | > 100 | 31.7 | > 100 | 4.1 | > 100 | > 100 | > 100 | > 100 | > 100 | 5.31 | > 100 | 5.09 | > 100 | 6.58 | > 100 | 4.62 | > 100
2 | COc1ccc(/C=C2\CC(C)CC3C2=NN(C(C)=O)C3c2ccc(OC)cc2)cc1 (stereo not given) | 30.3 | > 100 | 27.2 | > 100 | 16.5 | 39.1 | 17 | 35.3 | 18.4 | 38.7 | 21.6 | 48.2 | 25.7 | 92.5 | 17.6 | 38.3 | 17.5 | 40 | 28.1 | > 100
3 | CN(/N=C/c1cccc2cccnc12)c1ccc([N+](=O)[O-])cc1 | – | > 100 | – | > 100 | – | > 100 | – | > 100 | – | > 100 | – | > 100 | – | > 100 | – | > 100 | – | > 100 | – | > 100
4 | Cc1nccc2c3ccc(OCc4cn(-c5ccc(Cl)cc5)nn4)cc3n(CCCc3ccccc3)c12 | > 33.3 | > 33.3 | 4.45 | 11.6 | 1.72 | 9.12 | 1.89 | 7.43 | 8.81 | 31.2 | 7.34 | > 33.3 | 4.22 | > 33.3 | 1.08 | 4.88 | 6.13 | > 33.3 | 1.21 | 4.22
5 | CCN1C2=NCCN2S(=O)(=O)c2ccccc21 | – | > 100 | – | > 100 | – | > 100 | – | > 100 | – | > 100 | – | > 100 | – | > 100 | – | > 100 | – | > 100 | – | > 100
6 | CS(=O)(=O)CCNCc1ccc(-c2ccc3ncnc(Nc4ccc(OCc5cccc(F)c5)c(C(F)(F)F)c4)c3c2)o1 | 4.51 | 8.96 | 2.85 | 6.15 | 3.44 | 6.75 | 3.94 | 7.48 | 4.73 | 14.9 | 5.29 | 15 | 4.37 | 7.99 | 3.96 | 8.13 | 4.4 | 8.29 | 4.76 | 11.2
7 | N#CSc1c[nH]c2ccc(/C=C/C(=O)/C=C(/C=C/c3ccc4[nH]cc(SC#N)c4c3)OB(F)F)cc12 | 2.92 | 8.04 | 0.24 | 0.852 | 2.18 | 5.62 | 1.2 | 2.85 | 0.442 | 3.13 | 2.24 | 8.68 | 0.652 | 3.52 | 0.202 | 0.571 | 3.72 | 19.7 | 0.577 | > 100
